Measured values from patent publication US8895502B2, “β2-glycoprotein I peptide inhibitors” (Kansas State University Research Foundation, priority 2010, dated 2014).
“Also recorded” adds a separate entry of the source. Ends that are not written are not given here.

How the values were obtained:
Assay type in all cases: in vivo, mouse
IL-12 = assay: Intestinal IR, ex vivo IL-12 generation; design: key to IL-12p40 Induction: + indicates significant difference from Sham treated mice; − indicates not significantly different from C57B1/6 sham treated mice; +/− indicates no significant difference from either C57B1/6 mice subjected to either Sham or IR; settings: for IL-12p40 Induction: C57Bl/6 mice subjected to IR, peptide 40 μM i.v. 5 min prior to artery occlusion; for IR induced IL-12 production: C57Bl/6 mice, peptide prior to IR
Description: (§1) C57Bl/6 and Rag-1^−/− mice were subjected to ischemia followed by reperfusion similar to previously described studies (Moses, T. et al., J. Leukoc. Biol. 86:971-980 (2009)). Briefly, ketamine (16 mg/kg) and xylazine (80 mg/kg) were used to anesthetize the mice. Buprenorphine (0.06 mg/kg) was then administered for pain. A midline laparotomy was performed to expose the abdominal cavity of the mice, which were then allowed to equilibrate for 30 min. Body temperature was maintained at 37° C. using a water-circulating heat pad. Placing a warm, saline moistened piece of gauze over the abdominal cavity prevented peritoneal desiccation. […] Ischemia was noted by the intestine changing from a pink color to a gray color. After 30 min of ischemia, the clamp was removed and the intestines were allowed to reperfuse for 5, 10, 15, or 120 min. […] Mice treated with the various β2-GPI peptides underwent the same procedure with i.v. administration of the peptides (40 μM) 5 min prior to artery occlusion. Peptides 296, 305, and 296Cys to Ser were dissolved in N. Saline (0.9% NaCl) and injected i.v. in 100-μL volumes. Peptides 100 and 181 were dissolved in DMSO prior to diluting 1/100 in N. Saline. Additional mice received peptides prior to Sham treatment.
(§2) Ex vivo generation of eicosanoids by mid-jejunal tissue was determined. Immediately after collection, a 2-cm intestinal section from each mouse was minced, washed, resuspended in 37° C. oxygenated Tyrode's buffer (Sigma-Aldrich; St. Louis, Mo.), incubated at 37° C. for 20 minutes, and the supernatant collected. PGE2 and LTB4 concentrations were determined using enzyme immunoassay kits (Cayman Chemical; Ann Arbor, Mich.). IL-6 and IL-12 concentrations were determined using a Milliplex MAP immunoassay kit (Millipore) and read on a Milliplex Analyzer (Millipore). All eicosanoid and cytokine concentrations were standardized to the total tissue protein content.
(§3) Total peroxidase, LTB4, PGE2, IL-6, IL-12p40, and IL-12p70 concentrations were determined using the procedures described in Example 1.

F4/80 = assay: Intestinal IR, F4/80 macrophage marker immunohistochemistry; design: key to F4/80 Deposition: + indicates significant difference from Sham treated mice; − indicates not significantly different from C57B1/6 sham treated mice; +/− indicates no significant difference from either C57B1/6 mice subjected to either Sham or IR; settings: for F4/80 Deposition: C57Bl/6 mice subjected to IR, peptide 40 μM i.v. 5 min prior to artery occlusion; for expression of the mature macrophage marker (F4/80) after IR: C57Bl/6 mice, peptide prior to IR
Description: as §1
(§4) After euthanasia, an additional 2-cm intestinal section from each mouse was immediately snap frozen in O.C.T. freezing medium and 8 μm sections were placed on slides for immunohistochemistry. The C3 deposition and F4/80 expression on the tissue sections were detected by staining with a purified rat-anti-mouse C3 (Hycult Biotechnologies; Plymouth Meeting, Pa.) or F4/80 (eBioscience; San Diego, Calif.) antibody followed by a Texas-red conjugated donkey-anti-rat IgG secondary antibody (Jackson Immunoresearch). CD31 (PECAM-1) and CD106 (VCAM-1) were detected by FITC conjugated rat anti-mouse CD31 or CD106 (Biolegend; San Diego, Calif.) antibodies. Each experiment contained serial sections stained with the appropriate isotype control antibodies. All slides were mounted with ProLong Gold (Invitrogen). Images were obtained at room temperature using a Nikon Eclipse 80i microscope equipped with a CoolSnap CF camera (Photometrics) and analyzed using Metavue software (Molecular Devices). The fluorescence was semi-quantitated using Image J software (NIH) using the fluorescent area fraction after setting threshold for each experiment. The average of the isotype control was subtracted from each photo.

C3 = assay: Intestinal IR, C3 deposition immunohistochemistry; design: key to C3 Deposition: + indicates significant difference from Sham treated mice; − indicates not significantly different from C57B1/6 sham treated mice; +/− indicates no significant difference from either C57B1/6 mice subjected to either Sham or IR; settings: for C3 Deposition: C57Bl/6 mice subjected to IR, peptide 40 μM i.v. 5 min prior to artery occlusion; for C3 deposition / complement activation after IR: C57Bl/6 mice, peptide infused prior to IR
Description: as §1, §4

PGE2 = assay: Intestinal IR, ex vivo PGE2 generation; design: key to PGE2 Production: + indicates significant difference from Sham treated mice; − indicates not significantly different from C57B1/6 sham treated mice; +/− indicates no significant difference from either C57B1/6 mice subjected to either Sham or IR; settings: for IR-induced intestinal PGE2 production: C57Bl/6 mice, peptide 40 μM prior to IR
Description: C57Bl/6 and Rag-1^−/− mice were subjected to ischemia followed by reperfusion similar to previously described studies (Moses, T. et al., J. Leukoc. Biol. 86:971-980 (2009)). Briefly, ketamine (16 mg/kg) and xylazine (80 mg/kg) were used to anesthetize the mice. Buprenorphine (0.06 mg/kg) was then administered for pain. A midline laparotomy was performed to expose the abdominal cavity of the mice, which were then allowed to equilibrate for 30 min. Body temperature was maintained at 37° C. using a water-circulating heat pad. Placing a warm, saline moistened piece of gauze over the abdominal cavity prevented peritoneal desiccation. […] Ischemia was noted by the intestine changing from a pink color to a gray color. After 30 min of ischemia, the clamp was removed and the intestines were allowed to reperfuse for 5, 10, 15, or 120 min. […] Peptides 296, 305, and 296Cys to Ser were dissolved in N. Saline (0.9% NaCl) and injected i.v. in 100-μL volumes. Peptides 100 and 181 were dissolved in DMSO prior to diluting 1/100 in N. Saline. Additional mice received peptides prior to Sham treatment.
as §2, §3

[1] = C57Bl/6 mice subjected to IR, peptide 40 μM i.v. 5 min prior to artery occlusion
[2] = 10 μM peptide 5 min prior to IR
[3] = administered at 15 min post-reperfusion

Substance	IL-12p40 Induction (IL-12)	IR induced IL-12 production (IL-12)	F4/80 Deposition (F4/80)	expression of the mature macrophage marker (F4/80) after IR (F4/80)	C3 Deposition (C3)	C3 deposition / complement activation after IR (C3)	PGE2 Production (PGE2; [1])	IR-induced intestinal PGE2 production (PGE2)	PGE2 Production (PGE2; [2])	PGE2 Production (PGE2; [3])
H-IHFYCKNKEKKCSYTVEAHCRDGTI-OH (cysteine pairing not given here) [peptide 296]	−	attenuated; also recorded: inhibit	−	reduced macrophage to Sham levels	−	significantly decreased C3 deposition; also recorded: attenuated complement activation	−	attenuated; also recorded: blocked		
H-KNISFACNPGFFLNG-NH2 [peptide 100, 16, reference compound]	+/−		+	reduced macrophage to Sham levels	+	did not significantly inhibit C3 deposition	+	sustained inflammation similar to untreated mice		
H-KKCSYTVEAHCRDGTIEIPSCFKEHS-OH (cysteine pairing not given here) [peptide 305, 10]	−	attenuated; also recorded: inhibited	−	reduced macrophage to Sham levels	−	not significantly different from either Sham or IR treatment; also recorded: attenuated complement activation	+/−	did not attenuate; also recorded: but not eicosanoid production	optimally attenuated	attenuated
H-IPSCFKEHSSLAFWKTDASELTPC-NH2 (cysteine pairing not given here) [peptide 322, 18]	+	did not inhibit	+	increased in response to IR	+	did not significantly inhibit C3 deposition	+	sustained inflammation similar to untreated mice		
H-IHFYSKNKEKKSSYTVEAHSRDGTI-OH [peptide 296Cys-Ser]	−	attenuated; also recorded: inhibit	−	reduced macrophage to Sham levels	−	significantly decreased C3 deposition; also recorded: attenuated complement activation	−	attenuated; also recorded: blocked	optimally attenuated	attenuated
